Measured values from PubChem BioAssay (NCI).
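GI50 = concentration required for 50% inhibition of growth. The concentration for full growth arrest is given as TGI.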

How the values were obtained:
Test in all cases: growth of human tumour cells (NCI), 384-well format
A498 renal = system: A498 renal
CCRF-CEM leukemia = system: CCRF-CEM leukemia
DU-145 prostate = system: DU-145 prostate
HCT-15 colon = system: HCT-15 colon
HT29 colon = system: HT29 colon
NCI-H226 lung = system: NCI-H226 lung
NCI-H23 lung = system: NCI-H23 lung
OVCAR-8 ovarian = system: OVCAR-8 ovarian
SK-OV-3 ovarian = system: SK-OV-3 ovarian
SN12C renal = system: SN12C renal
SNB-75 CNS = system: SNB-75 CNS
SR leukemia = system: SR leukemia
T-47D breast = system: T-47D breast

Compound `C1=C/COCc2cc(ccc2OCCN2CCCC2)Nc2nccc(n2)-c2cccc(c2)COC/1` has a GI50 (A498 renal) of 0.829 µM, a TGI (A498 renal) of 2.85 µM and a GI50 (CCRF-CEM leukemia) of 0.705 µM. It also gave a TGI (CCRF-CEM leukemia) of 1.79 µM, a GI50 (DU-145 prostate) of 1.06 µM and a TGI (DU-145 prostate) of 3.43 µM. The GI50 (HCT-15 colon) was 0.802 µM, the TGI (HCT-15 colon) was 2.31 µM and the GI50 (HT29 colon) was 1.34 µM. For the same compound, the TGI (HT29 colon) was 2.67 µM, the GI50 (NCI-H226 lung) was 1.14 µM and the TGI (NCI-H226 lung) was 2.6 µM. For the same compound, the GI50 (NCI-H23 lung) was 0.945 µM, the TGI (NCI-H23 lung) was 2.25 µM and the GI50 (OVCAR-8 ovarian) was 1.29 µM. It also gave a TGI (OVCAR-8 ovarian) of 2.67 µM, a GI50 (SK-OV-3 ovarian) of 0.888 µM and a TGI (SK-OV-3 ovarian) of 2.35 µM. It also gave a GI50 (SN12C renal) of 0.704 µM, a TGI (SN12C renal) of 2.01 µM and a GI50 (SNB-75 CNS) of 1.61 µM. For the same compound, the TGI (SNB-75 CNS) was 2.98 µM, the GI50 (SR leukemia) was 0.152 µM and the TGI (SR leukemia) was 0.303 µM. For the same compound, the GI50 (T-47D breast) was 1.27 µM and the TGI (T-47D breast) was 2.67 µM.
